In publication PMC11784839, “Monoaminergic neurotransmitters are bimodal effectors of tau aggregation” (Science Advances, 2025):

Molecular target: tau (Homo sapiens, UniProt P10636)
Experiment: MCE Phenols Library screening, tau biosensor cell seeding assay (AvZ)
Type: cell-based
Conditions: for Z repl 1 / Z Repl 2: Z score; for Z repl 1 / raw data 1: replicate 1; for Z Repl 2 / raw data 2: replicate 2; for AvZ (average z score of seeding, SDs from the mean level of seeding): 10 μM phenol in cell cultures, AD brain homogenate preincubated 16 hours, two biological replicates, positive = catalyzes seeding, negative = inhibits
[1] = average Z score of two replicates, Phenols Library screen
[2] = average Z score of the two replicates, MCE Phenols Library screen
[3] = average puncta of the two replicates
[4] = average Z score of the two replicates, tau seeding
[5] = average Z score of the two replicates, tau biosensor seeding, MCE Phenols Library screen

tau, sequence (P10636 623-695 limits assumed): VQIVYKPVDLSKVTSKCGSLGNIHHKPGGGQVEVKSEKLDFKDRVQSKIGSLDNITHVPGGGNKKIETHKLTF

SMILES | Z repl 1 | Z Repl 2 | av Z [1] | av puncta (average of raw data 1 and 2) | raw data 1 (puncta) | raw data 2 (puncta) | AvZ (average z score of seeding, SDs from the mean level of seeding) | av Z [2] | av puncta [3] | raw data 1 (raw puncta) | raw data 2 (raw puncta) | av Z [4] | av Z [5]
COc1c(O[C@@H]2O[C@H](CO)[C@@H](O)[C@H](O)[C@H]2O)cc2oc(-c3ccc(O)cc3)cc(=O)c2c1O [Homoplantaginin] | -0.079 | -0.247 | -0.163 | 17765.2 | 25406.2 | 10124.2 | – | – | – | – | – | – | –
COc1cc(CCO)ccc1O [Homovanillyl alcohol] | -0.272 | 0.136 | – | 18647.3 | 23079.4 | 14215.2 | -0.068 | – | – | – | – | – | –
COc1cc(O)c2c(=O)cc(-c3ccc(O)c(O)c3)oc2c1 [Hydroxygenkwanin] | -0.407 | -0.493 | – | – | – | – | – | -0.45 | 14482.9 | 21459.9 | 7505.79 | – | –
O=C(O)C(O)Cc1ccc(O)cc1 (centres unmarked) [Hydroxyphenyllactic acid] | -0.248 | 0.325 | – | 19806.4 | 23372.2 | 16240.5 | 0.039 | – | – | – | – | – | –
O=C(/C=C/c1ccc(O)cc1)C1=C(O)C(O)([C@@H]2O[C@H](CO)[C@@H](O)[C@H](O)[C@H]2O)C(O)=C([C@@H]2O[C@H](CO)[C@@H](O)[C@H](O)[C@H]2O)C1=O (some centres unmarked) [Hydroxysafflor yellow A] | -0.826 | -0.428 | – | – | 16428.1 | 8192.15 | – | -0.627 | 12310.1 | – | – | – | –
CC(=O)OCCc1ccc(O)c(O)c1 [Hydroxytyrosol acetate] | -0.003 | -1.049 | – | – | 26308.5 | 1565.31 | – | – | 13936.9 | – | – | – | –
OCCc1ccc(O)c(O)c1 [Hydroxytyrosol] | -0.11 | -0.571 | – | – | – | – | -0.34 | – | 15851.9 | 25031.1 | 6672.58 | – | –
Cc1cc(O)c2c(=O)c3c(O)cc(O)c4c5c(O)cc(O)c6c(=O)c7c(O)cc(C)c8c1c2c(c34)c(c78)c65 [Hypericin] | -1.344 | -0.424 | – | 9227.43 | 10216.3 | 8238.56 | – | -0.884 | – | – | – | – | –
O=c1c(O[C@@H]2O[C@H](CO)[C@H](O)[C@H](O)[C@H]2O)c(-c2ccc(O)c(O)c2)oc2cc(O)cc(O)c12 [Hyperoside] | -0.253 | -0.241 | – | – | – | – | – | -0.247 | 16752.5 | 23311.4 | 10193.6 | – | –
COc1c2c3c4c(c(OC)c(=O)c5c(O)cc(OC)c(c6c(OC)cc(O)c(c1=O)c63)c54)[C@@H](C(C)=O)[C@@](C)(O)C2 [Hypocrellin A] | -1.761 | -1.119 | – | 3011.52 | 5209.06 | 813.974 | – | -1.44 | – | – | – | – | –
COc1ccc(-c2oc3c(CC=C(C)C)c(O[C@@H]4O[C@H](CO)[C@@H](O)[C@H](O)[C@H]4O)cc(O)c3c(=O)c2O[C@@H]2O[C@@H](C)[C@H](O)[C@@H](O)[C@H]2O)cc1 [Icariin] | 0.381 | 0.569 | – | 24883.3 | 30921.9 | 18844.8 | – | – | – | – | – | 0.475 | –
COc1ccc(-c2oc3c(CC=C(C)C)c(O)cc(O)c3c(=O)c2O)cc1 [Icaritin] | 0.42 | 0.629 | – | 25439.4 | 31392.8 | 19486 | – | – | – | – | – | 0.525 | –
O=C(c1ccc(O)cc1)c1c(O)cc(O)c([C@@H]2O[C@H](CO)[C@@H](O)[C@H](O)[C@H]2O)c1O [Iriflophenone 3-C-glucoside] | 0.626 | -0.232 | – | 22078.3 | 33866.6 | 10290 | – | – | – | – | – | 0.197 | –
COc1ccc(-c2coc3cc(O)c(OC)c(O)c3c2=O)cc1 [Irisolidone] | 0.554 | 1.188 | – | 29224.4 | 32994.7 | 25454.1 | – | – | – | – | – | – | 0.871
COc1ccc(-c2coc3cc(O[C@@H]4O[C@H](CO)[C@@H](O)[C@H](O)[C@H]4O)c(OC)c(O)c3c2=O)cc1O [Iristectorin A] | 0.106 | 0.25 | – | 21528.7 | 27620 | 15437.3 | – | – | – | – | – | 0.178 | –
COc1ccc2c(c1O)-c1c(OC)c(OC)cc3c1[C@H](C2)N(C)CC3 [Isocorydine] | -0.45 | -0.651 | – | – | 20943.6 | 5817.19 | – | -0.55 | 13380.4 | – | – | – | –
C/C=C/c1ccc(OC(C)=O)c(OC)c1 [Isoeugenol acetate] | -0.788 | 0.239 | – | – | – | – | -0.275 | – | 16103.3 | 16893.4 | 15313.2 | – | –
O=C(/C=C/c1ccc(O)cc1)c1ccc(O)cc1O [Isoliquiritigenin] | 0.483 | 0.177 | – | 23402.5 | 32143.5 | 14661.5 | – | – | – | – | – | 0.33 | –
COc1cc(-c2oc3cc(O)cc(O)c3c(=O)c2O)ccc1O [Isorhamnetin] | 0.124 | -0.648 | – | – | – | – | – | -0.262 | 16840.7 | 27835.2 | 5846.21 | – | –
COc1ccc(C=O)cc1O [Isovanillin] | -0.326 | -0.711 | – | – | 22438.6 | 5167.88 | -0.519 | – | 13803.3 | – | – | – | –

More lines, now with the values ahead:

Z repl 1 | Z Repl 2 | av Z [1] | av puncta (average of raw data 1 and 2) | raw data 1 (puncta) | raw data 2 (puncta) | AvZ (average z score of seeding, SDs from the mean level of seeding) | av Z [2] | av puncta [3] | raw data 1 (raw puncta) | raw data 2 (raw puncta) | av Z [4] | av Z [5] | SMILES
-0.293 | -0.887 | – | – | 22827.1 | 3295.67 | – | -0.59 | 13061.4 | – | – | – | – | COc1cc(-c2coc3cc(O[C@@H]4O[C@H](CO)[C@@H](O)[C@H](O)[C@H]4O)c(OC)c(O)c3c2=O)ccc1O [Iristectorin B]
-0.182 | 0.275 | 0.046 | 19930.3 | 24161.4 | 15699.2 | – | – | – | – | – | – | – | O=C(/C=C/c1ccc(O)c(O)c1)O[C@@H]1C[C@](O)(C(=O)O)C[C@@H](OC(=O)/C=C/c2ccc(O)c(O)c2)[C@H]1O [Isochlorogenic acid A]
0.35 | -0.155 | 0.098 | 20831 | 30549.1 | 11112.8 | – | – | – | – | – | – | – | COc1ccc2c(=O)c(-c3ccc(O)cc3)coc2c1 [Isoformononetin]
0.211 | 0.742 | – | 24789.8 | 28887.4 | 20692.2 | – | – | – | – | – | 0.477 | – | COc1cc2ccc(=O)oc2c(OC)c1O [Isofraxidin]
0.107 | 0.423 | – | 22459.5 | 27639.6 | 17279.4 | – | – | – | – | – | 0.265 | – | COc1ccc(C[C@@H]2c3cc(Oc4cc(C[C@@H]5c6cc(O)c(OC)cc6CCN5C)ccc4O)c(OC)cc3CCN2C)cc1 [Isoliensinine]
0.307 | 0.537 | – | 24267.1 | 30032.6 | 18501.6 | – | – | – | – | – | 0.422 | – | O=c1c2cc(O)c(O)cc2oc2c([C@@H]3O[C@H](CO)[C@@H](O)[C@H](O)[C@H]3O)c(O)cc(O)c12 [Isomangiferin]
0.708 | 0.042 | – | 24030.3 | 34846.9 | 13213.7 | – | – | – | – | – | 0.375 | – | O=c1cc(-c2ccc(O)c(O)c2)oc2cc(O)c([C@@H]3O[C@H](CO)[C@@H](O)[C@H](O)[C@H]3O)c(O)c12 [Isoorientin]
0.168 | -0.833 | – | – | – | – | -0.332 | – | 16119 | 28366.5 | 3871.42 | – | – | COc1cc(/C=C/C(=O)OC(C)C)ccc1O [Isopropyl ferulate]
0.174 | -0.844 | – | – | – | – | – | -0.335 | 16096.8 | 28442.1 | 3751.47 | – | – | O=c1c(O[C@@H]2O[C@H](CO)[C@@H](O)[C@H](O)[C@H]2O)c(-c2ccc(O)c(O)c2)oc2cc(O)cc(O)c12 [Isoquercetin]
1.299 | 0.571 | – | 30407 | 41947.4 | 18866.6 | – | – | – | – | – | – | 0.935 | COc1cc(/C=C/c2cc(O)cc(O)c2)ccc1O [Isorhapontigenin]
-0.121 | -0.131 | -0.126 | 18128.6 | 24892.1 | 11365.2 | – | – | – | – | – | – | – | O=c1cc(-c2ccc(O)cc2)oc2c([C@@H]3O[C@H](CO)[C@@H](O)[C@H](O)[C@H]3O)c(O)c([C@@H]3OC[C@H](O)[C@H](O)[C@H]3O)c(O)c12 [Isoschaftoside]
0.248 | -0.549 | – | 18113.3 | 29328.9 | 6897.73 | -0.151 | – | – | – | – | – | – | COc1ccc(C(=O)O)cc1O [Isovanillic acid]
